Data taken from patent US11666562B2, “Ilaprazole for inhibiting the release of enveloped viruses from cells” (Northwestern University, priority 2020, dated 2023).
Read-outs that look alike come from different tables or passages of the source.

Experiments:
[1] = system: Vero cells; assay: Vero cell viability/toxicity (96 AQueous One Solution / WST-1); type: cell-based
Experimental: Drug potency and cell toxicity. EC50 calculations were determined by using AAT Bioquest's EC50 calculator. Cell toxicity at different concentrations of drugs as indicated was determine using the Cell Proliferation Reagent WST-1 (Roche Diagnostics) or cellular 96® Aqueous One Reagent viability reagent according to manufacturer's instructions. For 293T cells, the concentration of DMSO was 0.2% or less and assays were carried out with DMEM with 10% serum. Cell toxicity experiments were repeated twice.

[2] = biological target: T1, Tsg101-UEV (Tsg101 amino acids 1-145) (Homo sapiens, UniProt Q99816); assay: Fluorescence thermal shift (FTS) assay, binding to Tsg101-UEV; details: for Tm (melting temperature) shift of Tsg101-UEV: FTS, Sypro-Orange, no DTT
T1 construct: The recombinant Tsg101 fragment (amino acids 1-145), prepared as described above in Materials and Methods; His6 (N); thrombin protease cleavage site (N); made in house; host or cells: E. coli ROSETTA 2 (DE3) pLysS
T1 sequence (Q99816 1-145): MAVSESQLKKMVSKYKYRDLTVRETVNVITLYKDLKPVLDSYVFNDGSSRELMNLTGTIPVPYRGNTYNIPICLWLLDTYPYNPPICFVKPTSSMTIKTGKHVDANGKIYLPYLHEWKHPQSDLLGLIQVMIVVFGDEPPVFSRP
Experimental: The fluorescence-based thermal shift assay is based on the observation that a protein unfolds upon heating, exposing the hydrophobic residues within its tertiary structure. The unfolding temperature (Tm) is determined by the protein's primary sequence and solution environment. The FTS assay uses a fluorescent dye sensitive to a hydrophobic environment to probe protein stability and its modulation by small molecule ligands. The dye has a low fluorescence quantum yield when in a polar environment. Once in contact with the hydrophobic core normally buried within a folded protein that has become exposed during the thermal unfolding (melting) process, the quantum yield of the dye increases, thus providing a reporting signal. Furthermore, a protein's stability can be affected by ligand binding, resulting in an increase or decrease in its melting temperature. FTS assay uses the Tm shift upon binding of a ligand to identify hit compounds for drug discovery.
Identification of prazole compounds that bind the UEV ubiquitin-binding domain of Tsg101. We screened chemical compounds using a fluorescence thermal shift (FTS) assay (27, 28) to identify small molecules that bind directly to a truncated form of Tsg101 (amino acids 1-145) which contains the Ubiquitin E2 variant (UEV) ubiquitin-binding domain (FIG. 1). The UEV, which contains the PT/SAP binding domain in addition to the ubiquitin-binding domain, provides chaperone functions to HIV-1 Gag that is independent of its interaction with the PS/TAP motif, and contains the prazole binding site (5). This truncated Tsg101, called Tsg101-UEV, was used because full-length Tsg101 has significant solubility issues in aqueous solution. Tsg101 is an adaptor protein and thus lacks a readily deployable functional assay, making FTS a tractable approach to identify interacting compounds. FTS monitors protein thermal denaturation using SYPRO-Orange, a dye which fluoresces when bound to hydrophobic surfaces, which allows monitoring of the changes in hydrophobic surface exposure during protein denaturation (27). Since ligand binding affects protein thermal stability, it can be detected through modulation of protein thermal denaturation (melting) as a shift in melting temperature (Tm). Tsg101-UEV has a well-defined melting curve suitable for FTS. We used the FTS assay to identify compounds that bind to Tsg101-UEV.
Purification of Tsg101 (1-145). N-terminally His6-tagged Tsg101 UEV domain (amino acids 1-145), called Tsg101-UEV, was encoded in a pET-28b vector (Novagen—EMD Millipore), which also included a thrombin protease cleavage site (His6-Thrombin Site-Tsg101, 1-145). Tsg101-UEV was grown in LB broth with Kanamycin (30 μg/ml) in ROSETTA 2 (DE3) pLysS E. coli competent cells (EMD Millipore) and induced with 1 mM IPTG at room temperature for 3 h. Bacteria were collected by centrifugation at 4,000 rpm for 10 min at […]. Bacteria were suspended in 50 ml binding buffer (20 mM Tris-HCl, pH 7.9, 0.5 M NaCl, 5 mM Imidazole) with 1 mM PMSF, 0.1% NP40, and a Protease Inhibitor Cocktail Tablet (Roche) and sonicated for 3.5 min on ice. The sonicate was spun at 9,000 rpm for 1 h at […] in a Sorvall centrifuge. The supernatant was collected and passed through a 1.5 ml Ni-NTA Agarose column. The column was washed with 20 mM Tris-HCl, pH 7.9, 0.5 M NaCl, 30 mM Imidazole wash buffer. […] Protein concentration was determined with a Nano Drop Spectrophotometer at […]. […]

Structure (SMILES)	Cell toxicity to Vero cells [1]	Tm shift of Tsg101-UEV on addition of DTT ([2]; FTS with reducing agent DTT)	Tm (melting temperature) shift of Tsg101-UEV [2]	Cell toxicity to Vero cells ([1]; at concentrations that block virus release, 24 h)	Tm (melting temperature) shift of Tsg101-UEV ([2]; listed as tenatoprazole)
COc1ccnc(C[S+]([O-])c2nc3ccc(-n4cccc4)cc3[nH]2)c1C (stereo not drawn) [Ilaprazole, 2-[(4-methoxy-3-methylpyridin-2-yl)methylsulfinyl]-6-pyrrol-1-yl-1H-benzimidazole]	did not observe cell toxicity	blocked by the addition of DTT	largest thermal shift	–	–
COc1ccc2[nH]c([S+]([O-])Cc3ncc(C)c(OC)c3C)nc2n1 (stereo not drawn) [Tenatoprazole]	–	–	dose-dependent shift in the Tm	nontoxic	destabilizes the native protein structure
